Measurements taken from ChEMBL document CHEMBL5137025, “Tuberculosis Drug Discovery: Challenges and New Horizons” (J Med Chem, 2022).
Values after ≈ are worked out from the molar mass of the structure shown.

What was measured:
[1] = system: Mycobacterium tuberculosis; type: functional; details: H37Rv, time 14-21 day
[2] = system: Mycobacterium tuberculosis; experiment: Antibacterial activity against Mycobacterium tuberculosis Erdman in acute Mtb infection BALB/c mouse model assessed as reduction in log10 CFU in lungs at 100 mg/kg, po qd via gavage for 4 weeks; type: functional
[3] = system: Mycobacterium tuberculosis; type: functional; details: H37Rv
[4] = system: Mycobacterium tuberculosis; type: functional, H37Rv; details: dose 3.1 mg/kg; route po; time 4 weeks
[5] = Cytotoxicity against African green monkey Vero cells assessed as reduction in cell viability treated for 72 hrs by CCK8 assay; type: toxicity, cell-based; details: chlorocebus sabaeus
[6] = Cytotoxicity against African green monkey Vero cells assessed as reduction in cell viability treated for 3 days by Cell Titer Glo assay; type: toxicity, cell-based; details: chlorocebus sabaeus, time 3 day
[7] = Half life in Sprague-Dawley rat at 10 mg/kg, po via gavage measured for 0.25 to 96 hrs by LC/MS analysis; type: ADME, organism-based; details: in vivo, time 0.25-96 hrs
[8] = Oral bioavailability in Sprague-Dawley rat at 10 mg/kg via gavage measured for 0.25 to 96 hrs by LC/MS analysis; type: ADME, organism-based; details: in vivo, time 0.25-96 hrs
[9] = molecular target: Voltage-gated inwardly rectifying potassium channel KCNH2 (Homo sapiens, UniProt Q12809); experiment: Inhibition of hERG expressed in human HEK293 cells by manual patch clamp method; type: toxicity, cell-based
[10] = Acute toxicity in 10 to 14 hr fasted Sprague-Dawley rat assessed as maximum tolerated dose administered orally via gavage; details: in vivo, time 10-14 hrs, route po
[11] = system: Mycobacterium tuberculosis; type: functional, H37Rv; details: dose 200 mg/kg; route po; time 4 weeks
[12] = system: Mycobacterium tuberculosis; experiment: Antibacterial activity against Mycobacterium tuberculosis Erdman in acute Mtb infection BALB/c mouse model assessed as reduction in log10 CFU in lungs at 50 mg/kg, po via gavage for 8 weeks; type: functional
[13] = system: Mycobacterium tuberculosis; type: functional; details: H37Rv, time 6 day
[14] = system: Mycobacterium tuberculosis; type: functional, H37Rv; details: dose 150 mg/kg; route po; time 10 day
HepG2 [15] = experiment: Cytotoxicity against human HepG2 cells assessed as reduction in cell viability treated for 3 days by resazurin dye based assay; type: functional; details: HepG2, 72 h, time 3 day
[16] = system: Mycolicibacterium smegmatis; experiment: Inhibition of ATP synthesis in Mycobacterium smegmatis derived membrane vesicle incubated for 60 mins by luciferase based assay; type: functional; details: 1 h
[17] = system: Mycobacterium tuberculosis; type: functional, H37Rv; details: dose 100 mg/kg; route po; time 2 weeks
[18] = system: Mycobacterium tuberculosis; experiment: microbe, parasite or virus in culture; details: H37Rv
Description: Antibacterial activity against Mycobacterium tuberculosis H37Rv assessed as inhibition of bacterial growth

[19] = system: Mycobacterium tuberculosis; type: functional, H37Rv; details: dose 100 mg/kg; route po; time 4 weeks
HepG2 [20] = experiment: Cytotoxicity against human HepG2 cells treated for 48 hrs by resazurin dye based assay; type: functional
Cytochrome P450 3A4 = Cytochrome P450 3A4 (Homo sapiens, UniProt P08684); experiment: Inhibition of CYP3A4 in human liver microsome using midazolam as substrate incubated for 10 mins in presence of NADP+ by LC-MS/MS analysis; type: ADME, microsomes
[21] = Metabolic stability in human liver microsomes assessed as compound remaining measured after 1 hr in presence of NADP+ by LC-MS/MS analysis; type: ADME, Microsome; details: read-out: Stability
[22] = Metabolic stability in mouse liver microsomes assessed as compound remaining measured after 1 hr in presence of NADP+ by LC-MS/MS analysis; type: ADME, Microsome; details: read-out: Stability
[23] = system: Mycobacterium tuberculosis; experiment: Antibacterial activity against Mycobacterium tuberculosis in chronic Mtb infection C3HeB/FeJ mouse model assessed as reduction in log10 CFU in lungs at 250 mg/kg, po via gavage for 2 weeks; type: functional
[24] = system: Mycobacterium tuberculosis; experiment: Antibacterial activity against Mycobacterium tuberculosis CDC1551 infected in mouse J774 cells assessed as inhibition of bacterial growth at 20 uM incubated for 24 hrs relative to control; type: functional; set-up: scale not given: the % may be the effect or the level left
[25] = Cytotoxicity against African green monkey Vero cells treated for 72 hrs by microplate reader method; type: toxicity, cell-based; details: chlorocebus sabaeus
[26] = Kinetic aqueous solubility of the compound; type: physicochemical; details: buffer; read-out: Kinetic_solubility
[27] = Metabolic stability in mouse liver microsomes assessed as half life; type: ADME, Microsome
[28] = Protein binding in mouse plasma; type: ADME, cell-free; details: read-out: PPB (converted)
[29] = system: Mycobacterium tuberculosis; experiment: Antibacterial activity against Mycobacterium tuberculosis in acute Mtb infection C3HeB/FeJ mouse model assessed as reduction in log10 CFU in lungs at 250 mg/kg, po via gavage for 2 weeks; type: functional
[30] = system: Mycobacterium tuberculosis; type: functional; details: H37Rv, 336 h, time 14 day
[31] = Cytotoxicity against human THP-1 cells assessed as reduction in cell viability treated for 96 hrs by MTT assay; type: toxicity, cell-based
[32] = system: Mycobacterium tuberculosis; type: functional; details: H37Rv, 120 h, time 5 day
[33] = system: Mycobacterium tuberculosis; experiment: Antibacterial activity against Mycobacterium tuberculosis Erdman in chronic Mtb infection BALB/c mouse model assessed as reduction in log10 CFU in lungs at 200 mg/kg, po via gavage for 30 days in presence of 1-aminobenzotriazole; type: functional; details: time 30 day
[34] = system: Mycobacterium tuberculosis; type: functional; details: H37Rv, 216 h, time 9 day
[35] = Cytotoxicity against African green monkey Vero cells treated for 2 days by Cell Titer Glo assay; type: toxicity, cell-based; details: chlorocebus sabaeus, time 2 day
[36] = Solubility of the compound in microbiological medium at pH 6.8; type: physicochemical
[37] = Metabolic stability in human liver S9 microsomes assessed as half life in presence of NADPH by LC-MS/MS analysis; type: ADME
[38] = Permeability in human Caco2 cells treated for 1 to 2 hrs by LC-MS/MS analysis; type: ADME, cell-based; details: Caco-2, time 1-2 hrs, read-out: permeability
[39] = Half life in BALB/c mouse at 200 mg/kg, po measured for 0.5 to 24 hrs by LC-MS analysis; type: ADME, organism-based; details: in vivo, time 0.5-24 hrs
[40] = system: Mycobacterium tuberculosis; experiment: Antibacterial activity against Mycobacterium tuberculosis Erdman in chronic Mtb infection BALB/c mouse model assessed as reduction in log10 CFU in lungs at 200 mg/kg, po via gavage for 30 days; type: functional; details: time 30 day
[41] = system: Mycobacterium tuberculosis; experiment: Antibacterial activity against Mycobacterium tuberculosis Erdman in chronic Mtb infection BALB/c mouse model assessed as reduction in log10 CFU in lungs at 100 mg/kg, po via gavage for 30 days in presence of 1-aminobenzotriazole; type: functional; details: time 30 day
A549 = experiment: Cytotoxicity against human A549 cells treated for 72 hrs by MTT assay; type: functional
[42] = Metabolic stability in mouse liver microsome assessed as half life in presence of NADPH measured upto 60 mins by LC-MS/MS analysis; type: ADME; details: liver microsomes
[43] = system: Mycobacterium tuberculosis; experiment: Bactericidal activity against Mycobacterium tuberculosis H37Rv in acute Mtb infection BALB/c mouse model assessed as reduction in relative light unit at 100 mg/kg for 6 days; type: functional; details: time 6 day
[44] = system: Mycobacterium tuberculosis; type: functional, H37Rv; details: dose 100 mg/kg; route po; time 4 weeks; remark: listed apart in the source
[45] = system: Mycobacterium tuberculosis; type: functional; details: H37Rv, 168 h, time 7 day
[46] = system: Mycobacterium tuberculosis; type: functional, H37Rv; details: dose 100 mg/kg; route po; time 3 weeks
[47] = system: Mycobacterium tuberculosis; type: functional, H37Rv; details: dose 50 mg/kg; route po; time 3 weeks

Sequence of Voltage-gated inwardly rectifying potassium channel KCNH2 (Q12809 whole entry): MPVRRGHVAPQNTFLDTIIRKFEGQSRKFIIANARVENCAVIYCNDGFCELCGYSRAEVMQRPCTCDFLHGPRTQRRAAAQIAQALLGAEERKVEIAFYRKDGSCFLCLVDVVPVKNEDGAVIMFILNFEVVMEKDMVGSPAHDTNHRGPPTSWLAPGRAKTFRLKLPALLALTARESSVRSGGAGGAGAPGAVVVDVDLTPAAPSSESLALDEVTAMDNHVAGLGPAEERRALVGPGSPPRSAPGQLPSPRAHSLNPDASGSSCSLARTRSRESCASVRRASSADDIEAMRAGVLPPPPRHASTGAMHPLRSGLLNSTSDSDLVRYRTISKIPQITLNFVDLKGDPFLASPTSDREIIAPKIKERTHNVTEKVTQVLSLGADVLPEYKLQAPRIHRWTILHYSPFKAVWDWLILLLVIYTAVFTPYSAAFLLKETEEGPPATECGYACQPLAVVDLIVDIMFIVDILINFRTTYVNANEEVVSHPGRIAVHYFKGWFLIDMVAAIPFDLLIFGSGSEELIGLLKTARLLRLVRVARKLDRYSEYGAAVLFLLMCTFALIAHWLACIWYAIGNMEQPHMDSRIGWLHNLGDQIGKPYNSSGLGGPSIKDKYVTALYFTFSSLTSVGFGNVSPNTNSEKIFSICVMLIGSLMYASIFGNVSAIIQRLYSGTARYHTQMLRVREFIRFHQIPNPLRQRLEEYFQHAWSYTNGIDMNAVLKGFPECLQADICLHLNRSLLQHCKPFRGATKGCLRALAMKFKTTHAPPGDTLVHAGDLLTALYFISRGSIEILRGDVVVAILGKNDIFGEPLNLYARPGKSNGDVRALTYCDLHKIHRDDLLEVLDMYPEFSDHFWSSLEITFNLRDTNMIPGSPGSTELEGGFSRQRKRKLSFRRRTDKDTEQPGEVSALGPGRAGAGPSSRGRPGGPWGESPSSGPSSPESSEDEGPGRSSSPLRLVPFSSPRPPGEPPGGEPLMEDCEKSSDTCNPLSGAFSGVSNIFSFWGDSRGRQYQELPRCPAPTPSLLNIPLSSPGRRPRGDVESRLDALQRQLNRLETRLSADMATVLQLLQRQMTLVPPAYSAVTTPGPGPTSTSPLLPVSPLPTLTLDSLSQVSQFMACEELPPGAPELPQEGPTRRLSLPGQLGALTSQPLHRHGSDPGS
Sequence of Cytochrome P450 3A4 (P08684 whole entry): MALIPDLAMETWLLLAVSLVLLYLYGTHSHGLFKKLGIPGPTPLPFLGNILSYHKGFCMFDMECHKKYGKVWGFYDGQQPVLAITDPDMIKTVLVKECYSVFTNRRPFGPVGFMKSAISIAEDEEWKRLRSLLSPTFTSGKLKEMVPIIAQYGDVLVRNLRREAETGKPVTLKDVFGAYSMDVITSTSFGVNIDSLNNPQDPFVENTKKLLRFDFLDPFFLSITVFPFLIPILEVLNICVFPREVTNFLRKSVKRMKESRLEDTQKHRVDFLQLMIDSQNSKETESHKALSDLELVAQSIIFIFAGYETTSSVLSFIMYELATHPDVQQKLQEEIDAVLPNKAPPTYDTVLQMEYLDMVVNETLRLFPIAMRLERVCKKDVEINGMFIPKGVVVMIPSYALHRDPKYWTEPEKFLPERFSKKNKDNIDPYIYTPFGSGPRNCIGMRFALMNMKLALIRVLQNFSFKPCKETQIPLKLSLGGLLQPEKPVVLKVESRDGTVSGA

For `O=C1C=CN(c2c(F)cc(N3C[C@H](CNc4ccon4)OC3=O)c(F)c2F)CC1` [CONTEZOLID], which MIC [1] is on record?
The MIC was 1.2 µM (≈ 0.49 µg/mL).

What about the Activity [2] of the same molecule?
Its Activity is 2.3 log10CFU.

What does the source list for `COc1ccn2nc(C)c(C(=O)NCc3ccc(N4CCC(c5ccc(OC(F)(F)F)cc5)CC4)cc3)c2c1`?
MIC90 [3]: 0.011 µM (≈ 0.00592 µg/mL); Activity [4]: 2.2 log10CFU; CC50 at 72 h [5]: > 100 µM; CC50 at 72 h [6]: > 100 µM; half-life [7]: 1140 min; bioavailability [8]: 94%; IC50 [9]: > 30 µM; MTD [10]: > 2000 mg/kg; Activity [11]: 2.2 log10CFU; Activity [12]: 0.3 log10CFU

For `CCSc1nc(NC)c2ccc(F)c(F)c2n1`, which MIC90 [13] is on record?
Its MIC90 is 0.2 µM (≈ 0.0511 µg/mL).

And the Activity [14]?
The Activity was 0.5 log10CFU.

And the CC50 (HepG2 [15])?
Its CC50 is 153 µM.

Which IC50 [16] does the source give for `CN(C)CCOc1ncc(Nc2cc(-c3ccccc3)nc3cc(-c4ccc(F)cc4)nn23)cc1F` here?
Its IC50 is 0.5 µM.

And the Activity [17]?
The Activity was 1.5 log10CFU.

What about the MIC80 [18] of the same molecule?
The MIC80 was 6.2 µM (≈ 3.02 µg/mL).

With `CC(C)c1ccc(-c2nc(CN3CCN(c4ccnc5cc(-c6cccnc6)ccc45)CC3)no2)cc1` as the molecule, how does the MIC [13] read?
Its MIC is 1 µM (≈ 0.491 µg/mL).

What about the Activity [19] of the same molecule?
Its Activity is 0.6 log10CFU.

And the CC50 (HepG2 [20])?
The CC50 was > 130 µM.

And the IC50 (Cytochrome P450 3A4)?
Its IC50 is > 25 µM.

And the remaining at 1 h [21]?
Its remaining at 1 h is 40%.

And the remaining at 1 h [22]?
The remaining at 1 h was 1.2%.

For `CCSc1ncc(CN2CCN(c3nc4ccccc4o3)CC2)cn1`, which Activity [23] is on record?
The Activity was 0.7 log10CFU.

And the Activity [24]?
The Activity was 54%.

And the CC50 at 72 h [25]?
Its CC50 at 72 h is > 141 µM.

What about the solubility kinetic [26] of the same molecule?
Its solubility kinetic is 76 µM (≈ 27 µg/mL).

What about the half-life [27] of the same molecule?
The half-life was 49 min.

And the fraction unbound [28]?
Its fraction unbound is 0.03.

And the Activity [29]?
The Activity was 0.9 log10CFU.

What does the source list for `O=[N+]([O-])c1cc2cccnc2c2ncccc12`?
MIC99 [30]: 0.78 µM (≈ 0.176 µg/mL); CC50 at 96 h [31]: > 25 µM

With `Cc1cn2c(C(=O)NCc3ccc(N4CCN(c5ccc(C(F)(F)F)cn5)CC4)c(F)c3)c(C)nc2s1` as the molecule, how does the MIC90 [32] read?
Its MIC90 is 0.008 µM (≈ 0.00426 µg/mL).

What about the Activity [33] of the same molecule?
Its Activity is 0.6 log10CFU.

And the MIC [34]?
Its MIC is 1.1 µM (≈ 0.586 µg/mL).

What about the CC50 at 48 h [35] of the same molecule?
Its CC50 at 48 h is > 100 µM.

What about the solubility [36] of the same molecule?
The solubility was 50 µM (≈ 26.6 µg/mL).

What about the half-life [37] of the same molecule?
Its half-life is 28 min.

What about the Papp [38] of the same molecule?
Its Papp is < 1 ×10⁻⁶ cm/s.

What about the half-life [39] of the same molecule?
Its half-life is > 1440 min.

And the Activity [40]?
The Activity was 0.3 log10CFU.

And the Activity [41]?
The Activity was 0.3 log10CFU.

For `CC1(C)CCC(OC(=O)Nc2cc(O)cc(Cc3ccccc3)c2)CC1`, which CC50 (A549) is on record?
Its CC50 is 64 µM.

What about the half-life [42] of the same molecule?
Its half-life is 1.8 min.

What about the Activity [43] of the same molecule?
Its Activity is 1.3 log10RLU.

And the MIC90 [18]?
The MIC90 was 1.8 µM (≈ 0.636 µg/mL).

What does the source list for `Cc1cnc2c(c1)cc([N+](=O)[O-])c1cccnc12`?
MIC99 [30]: 0.2 µM (≈ 0.0478 µg/mL); Activity [44]: 1 log10CFU

For `CC(=O)NC[C@@H]1OC(=O)N2c3cc(F)c(N4CCSCC4)cc3OC[C@@H]12`, which MIC90 [45] is on record?
The MIC90 was 0.08 µM (≈ 0.0305 µg/mL).

And the Activity [46]?
Its Activity is 5.1 log10CFU.

What about the Activity [47] of the same molecule?
The Activity was “>=3 log10CFU”.
